Drawing on a melting point compilation (Tetko et al.; mined from patent text by program, amines drawn as free bases though some values may be those of a salt), this text covers melting point for 87 compounds.

As to `COc1cc(C(=N)NO)ccc1-c1cc(-c2ccc(C(=N)NO)cc2OC)on1`, the melting point fell in the range of 203 to 204 °C.

For the compound `O=C(NCc1ccccn1)c1cc(C(F)(F)F)cc(C(F)(F)F)c1`, the melting point was 123 to 124 °C.

`Cc1c(-c2ccccc2)oc2c(S(=O)(=O)NCCO)cccc2c1=O` came in with a melting point of 186 to 187 °C.

Compound `Cc1cc(=O)n2cccc(SC(=O)N(C)C)c2n1` came in with a melting point of 165 to 167 °C.

For `NC(=O)N(O)CCOCc1ccoc1`, the melting point fell in the range of 99 to 101 °C.

`O=C1C2=C(CCCC2)C(=O)N1c1cc([N+](=O)[O-])ccc1F` showed a melting point of 154 to 156 °C.

The compound `CCCc1cc(O)nc(SC)n1` had a melting point of 158 °C.

For the compound `N#CC(=Cc1cc2cccnc2n(-c2cc(Cl)cc(Cl)c2)c1=O)c1ccccn1`, the melting point is 319 °C.

`c1n[nH]c2c1Cc1[nH]ncc1-2` had a melting point of 180 °C.

`O=[N+]([O-])c1ccc(Oc2ccc3c(c2)OCC(c2ccccc2)O3)nc1` (configuration not stated) displayed a melting point of 163 to 170 °C.

`O=C(COc1cccc2ccccc12)NC(Cc1ccccc1)C(=O)CSCc1ccco1` (configuration not stated) yielded a melting point of 104 to 106 °C.

`CC(C)(C)c1ccc(NC(=O)c2cccc(C(OC(=O)Nc3ccc4[nH]ncc4c3)[C@@H]3CCCCN3)c2)cc1` (some centres not stated) registered a melting point of 214 °C.

In turn, `CCOC1=CC2=CCC3C(CCC4(CC)C(=O)CC(OC(C)=O)C34)C2CC1` (configuration not stated) gave a melting point of 189 °C.

Regarding `COc1cccc(Nc2ccc(Nc3ncnc4cc(-c5ccccc5)sc34)cc2)c1`, the melting point was in the range of 189 to 191 °C.

In turn, `O=c1[nH]c2cc(Cl)ccc2c(O)c1Sc1nc2ccccc2s1` returned a melting point of over 270 °C.

`Cn1nc2n(c1=O)-c1ccc(Cl)cc1C(c1ccccc1F)=CC2` registered a melting point of 142 to 143 °C.

The compound `c1ccc(C2=Nc3ccccc3N3CCc4cccc2c43)cc1` gave a melting point of 141 to 143 °C.

On to `CC(=O)c1ccc(-c2ccc(N(c3ccccc3)c3ccccc3)cc2)cc1`, for which the melting point was in the range of 97 to 98 °C.

Take `CC(=O)Nc1ccc(-c2ncc(NC(=O)OCc3ccccc3)c(=O)n2CC(=O)NC(Cc2ccccc2)C(=O)C(F)(F)F)cc1` (configuration not stated): the melting point lay within 235 to 240 °C.

`CC(=O)C1CCC2C3CCC4CC(O)CCC4(C)C3C(O)CC12C` (configuration not stated) registered a melting point of 152 to 154 °C.

As to `CCOC(=O)COc1nc2cc(OC)cc(OC)c2cc1-c1ccc(OC)cc1`, the melting point was in the range of 95 to 96 °C.

Compound `CC1(C)OCc2cc([C@@H](O)C(=O)N[C@H]3CCc4ccc(O)cc4C3)ccc2O1` came in with a melting point of 169 to 170 °C.

Compound `CCOc1nccc(-c2c(-c3ccc(F)cc3)ncn2[C@H]2CC[C@H](O)CC2)n1` gave a melting point of 184 to 186 °C.

As to `COc1cc2c(cc1OC)C(c1ccc([N+](=O)[O-])cc1)NN(C1=NC(=O)C(C)S1)C(C)C2` (configuration not stated), the melting point was in the range of 213 to 214 °C.

With `CCCCCCCCCn1ccc(C#N)cc1=O`, the melting point is 46 to 48 °C.

Compound `CCc1nc2c(cnn2CC)c(NC2CCOCC2)c1CNC(=O)c1cc(C)cc(C(=O)NCc2ccc(F)c(-c3cccc(C=O)c3)c2)c1` registered a melting point of 107 to 110 °C.

As for `NC(=O)Nc1cccc2c1C(=O)c1c-2n[nH]c1-c1cccs1`, the melting point was determined as 214 °C.

The compound `CNc1cc(CO)cc(S(N)(=O)=O)c1Oc1ccccc1` registered a melting point of 167 to 168 °C.

Regarding `Nc1ccc(S(=O)(=O)N2CCCC(c3ccc(Cl)c(C(F)(F)F)c3)=N2)cc1`, the melting point is 205 to 206 °C.

Take `NCC(=O)Nc1ccc([N+](=O)[O-])cc1C(=NO)c1ccccc1F`: the melting point was 198 °C.

`c1cc(N2CCNCC2)c2nccnc2c1` came in with a melting point of 106 to 108 °C.

As for `N#Cc1ccc(-c2cnc3cnc(-c4ccc(O)cc4)nc3c2)cc1`, the melting point was in the range of 313 to 314 °C.

The compound `CC(CC(=O)NCCc1ccc(C(=O)O)cc1)(c1ccccc1)c1ccccc1` displayed a melting point of 211 °C.

Compound `CC(=O)OCCOCn1c(Cl)nc2c(Cl)c(Cl)c(Cl)c(Cl)c21` returned a melting point of 119 °C.

Regarding `Nc1cnc2c(c1)[nH]c(=O)n2-c1ccccc1F`, the melting point lay in the range of 220 to 221 °C.

`O=C(CCCO)N1CCCCC1` gave a melting point of 31 to 33 °C.

In the case of `NC(=O)c1ccc(-c2ccc3ncn(Cc4ccc5ncccc5c4)c3n2)cc1Cl`, the melting point is 212 to 214 °C.

Compound `COc1ccc2cc(C(C)COC(=O)c3cc(O)c4c(c3)C(=O)c3cccc(O)c3C4=O)ccc2c1` (configuration not stated) yielded a melting point of 147 to 151 °C.

With `CN(C)CCCNS(=O)(=O)c1cccc(N)c1`, the melting point lay within 89 to 93 °C.

For the compound `ON=Cc1cc(Cl)ccc1O`, the melting point was 125 to 126 °C.

Turning to `N#Cc1ccc(CC2CCN(C(=O)C(=O)Nc3ccc4[nH]c(=O)oc4c3)CC2)cc1`, the melting point amounted to 194 °C.

As for `CN(N)c1cc(N)nc(N)n1`, the melting point was 214 to 217 °C.

In turn, `CNC(=O)Cc1c(-c2ccccc2)nn2cccnc12` came in with a melting point of 211 to 213 °C.

For `CC(C)(C)c1cc(-c2nn(CC(=O)N3CCOCC3)c3ncccc23)cc(C(C)(C)C)c1O`, the melting point lay within 207 to 209 °C.

For `Cc1cc(O)c(C2C=CN(C)CC2)c(O)c1` (configuration not stated), the melting point was 241 to 243 °C.

`O=C(NCCO)c1cc(-c2cccc3nn(Cc4cccc(C(F)(F)F)c4)cc23)ccn1` registered a melting point of 131 to 132 °C.

`CC(C)CCOc1cc(C(=O)O)cc([N+](=O)[O-])c1`: the melting point was 142 °C.

For `CCCCc1ccc(Nc2cc(C)nc3ccc(OC)cc23)cc1`, the melting point lay in the range of 200 to 201 °C.

The compound `CC1(C)c2ccccc2C(C)(C)N1Cc1ccccc1` registered a melting point of 61 to 61.4 °C.

As for `N#Cc1cccc(-c2cc(-c3ccc(C#N)cc3O[N+](=O)[O-])on2)c1`, the melting point is 198 to 199 °C.

In turn, `COC(=O)c1ccc(C)c(-c2cc3cnc(NC4CCOCC4)nc3n(C)c2=O)c1` displayed a melting point of 122 to 126 °C.

`COC(=O)C1=CC(C(=O)c2ccc(OCc3ccccc3)c(C)c2O)=CN2CCc3c([nH]c4ccccc34)C12C(=O)OC` (configuration not stated) showed a melting point of 216 °C.

`COc1cc2ncc3c4cc5c(cc4ccc3c2cc1OC)OCO5` came in with a melting point of 225 °C.

Turning to `Cc1c(C(=O)N[C@@H](Cc2ccc(OCc3ccsc3)cc2)C(=O)O)oc2cc(-c3ccc(Cl)cc3)ccc12`, the melting point is 111 to 113 °C.

For the compound `O=C(CC1CCCCC1)Nc1n[nH]c(-c2ccc(F)cc2)c1-c1ccncc1`, the melting point lay within 296 to 300 °C.

On to `COc1cccc2c1C[C@H]1C[C@@H](CCN3CCN(C(c4ccccc4)c4ccccc4)CC3)CN(C)[C@@H]1C2`, for which the melting point was 140 to 148 °C.

Consider `CC(=O)Nc1nc(C)c(CCC(C)c2ccc(Cl)cc2)c(NC(C)=O)n1` (configuration not stated), for which the melting point lay in the range of 136 to 138 °C.

`CCOC(=O)c1c(C(F)F)nc(C(F)(F)F)c(C(=O)OCC)c1Br`: the melting point lay in the range of 37 to 43 °C.

Regarding `COc1ccc(N2C(=O)c3ccc(Cl)cc3C2CC(=O)N2CCN(C)CC2)cc1` (configuration not stated), the melting point was in the range of 169 to 171 °C.

`Cc1cc(O)nc2c1CCCC2` showed a melting point of 250 to 252 °C.

Consider `Nc1cc(-c2cccnc2)ccc1S(N)(=O)=O`, for which the melting point lay in the range of 240 to 243 °C.

The compound `CC(=Cc1ccc(-n2ccnc2)cc1)[N+](=O)[O-]` displayed a melting point of 119 to 120 °C.

`CCC1(CC)NC(C)(COC(=O)C(C)(C)C)COC1=O` (configuration not stated) displayed a melting point of 51 to 53 °C.

With `Cc1nc(N)sc1-c1ccnc(CC2CC2)n1`, the melting point fell in the range of 198 to 200 °C.

`O=C1CNCc2[nH]c3ccccc3c21` came in with a melting point of 220 to 233 °C.

Regarding `Cc1c(CC(C)(C)C(=O)O)n(Cc2ccc(Cl)cc2)c2ccc(OCc3cccc(-c4ccccc4)n3)cc12`, the melting point lay in the range of 137 to 139 °C.

`CCOc1c(OC)cc(C(=O)NN=C2CCCC2=Cc2ccccc2)cc1OC` had a melting point of 239 to 240 °C.

Compound `CCCC1(CCC)c2cc(-c3nc4cc(C)ccc4o3)ccc2-c2cc(O)c(-c3nc4cc(C)ccc4o3)cc21` returned a melting point of 291 to 293 °C.

The compound `Cc1cc(CCC(=O)c2ccc(-c3ccc(C(F)(F)F)cc3)s2)ccc1OC(C)(C)C(=O)O` returned a melting point of 130 to 131 °C.

`CN(C(F)(F)C(F)F)S(=O)(=O)c1ccccc1S(N)(=O)=O`: the melting point lay within 102 to 107 °C.

The compound `O=C(O)/C=C/n1cnc2ccc(Cl)cc2c1=O` yielded a melting point of 297 to 298 °C.

The compound `c1ccc(Cc2cnc(-c3ccccc3)c(-c3ccccc3)n2)cc1` had a melting point of 118 to 119 °C.

With `CC1(CN)CCN(c2c(F)cc3c(=O)c(C(=O)O)cn(C4CC4)c3c2Cl)C1` (configuration not stated), the melting point fell in the range of 189 to 191 °C.

Compound `COC(=O)Nc1ccccc1-c1c(C(=O)OC)c2cc(OC)c(OC)cc2c(=O)n1C` showed a melting point of 165 to 170 °C.

In turn, `Cn1cc(C(=S)NCc2ccc(Cl)cc2)c(=O)c2cc(C#CCO)ccc21` showed a melting point of 200 to 201 °C.

Consider `CCCc1nc(C(C)(C)O)c(C(=O)OCOC(=O)C(C)(C)C)n1Cc1ccc(-c2ccccc2C(=O)OC(C)(C)C)cc1`, for which the melting point was in the range of 106 to 107 °C.

The compound `CCOC(=O)c1cn(-c2nc(OC)c(F)cc2F)c2c(Cl)c(F)c(F)cc2c1=O` registered a melting point of 140 to 143 °C.

With `Cc1cccc(C)c1Sc1cc(C(C)(C)C)cc(C(C)(C)C)c1O`, the melting point lay within 101 to 102 °C.

`CC(C)(C)c1cc(CNC2CCCCC2)c(O)c(C(C)(C)C)c1` returned a melting point of 67 to 70 °C.

Regarding `COCc1nc(N)nc(N)c1-c1c(Cl)cccc1Cl`, the melting point was 204 to 207 °C.

In turn, `COC1C(O)CCC(O)(CSc2ccccc2)C1C1(C)OC1CC=C(C)C` (configuration not stated) registered a melting point of 94 to 96 °C.

Regarding `O=Cc1ccc(-c2ccc(OCc3ccccc3)cc2)cc1`, the melting point fell in the range of 122 to 123 °C.

Turning to `O=c1ccc(Br)cn1CC1(O)CCN(Cc2ccccc2F)CC1`, the melting point lay within 184 to 186 °C.

`O=C(O)COc1ccc2c(c1)CCc1sc(SCCC(c3ccccc3)c3ccccc3)nc1-2`: the melting point is 138 to 140 °C.

`CCCn1cnc(C(N)=O)c1NC(=O)c1ccccc1OCC` came in with a melting point of 182 to 184 °C.

As for `COc1cc(Nc2c(C#N)cnc3cc(-c4csc(C5OCCO5)c4)ccc23)c(Cl)cc1Cl`, the melting point lay within 234 to 236 °C.

`Cn1cc(-c2cc3nccnc3[nH]2)c2cc(OC3(CO)CCC3)ccc21`: the melting point was in the range of 267 to 271 °C.
